Laboratory results published in the supplement of paper PMC10331698.
± gives the standard deviation of the averaged measurements.

Tests used:
Test in all cases: level (log10 ratio to DMSO vehicle control); higher = higher biomarker level / cell amount than vehicle control
[1] = compound: OCCCC(F)(F)C(F)(F)C(F)(F)C(F)(F)C(F)(F)C(F)(F)C(F)(F)F [7:3 Fluorotelomer alcohol]; details: 6700 nM; in DMSO
Description: (§1)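 BioMAP Diversity Plus panel of 12 human primary cell co-culture systems (3C, 4H, LPS, SAg, BT, BF4T, BE3C, CASM3C, HDF3CGF, KF3CT, MyoF, Mphg). Compounds were added 1 h before stimulation and left for 24 h (MyoF 48 h; BT 72 h for soluble read-outs or 6 d for IgG). Biomarkers were read by ELISA, cytotoxicity by SRB, PBMC viability and proliferation by Alamar Blue. Each well value was divided by the mean of 8 DMSO control wells on the same plate and log10 transformed; duplicate blinded samples were tested at 4 concentrations.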

[2] = compound: OCCC(F)(F)C(F)(F)C(F)(F)C(F)(F)C(F)(F)C(F)(F)F [6:2 Fluorotelomer alcohol]; details: in DMSO
Description: as §1

[3] = compound: NCC(F)(F)C(F)(F)C(F)(F)C(F)(F)C(F)(F)C(F)(F)C(F)(F)F [1H,1H-Perfluorooctylamine]; details: in DMSO
Description: as §1

[4] = compound: O=C(O)C(F)(F)OC(F)(F)C(F)(F)OC(F)(F)F [Perfluoro-3,6-dioxaheptanoic acid]; details: in DMSO
Description: as §1

Perfluorobutanoic acid = compound: O=C(O)C(F)(F)C(F)(F)C(F)(F)F [Perfluorobutanoic acid]; details: in DMSO
Description: as §1

[5] = compound: CCN(CCO)S(=O)(=O)C(F)(F)C(F)(F)C(F)(F)C(F)(F)C(F)(F)C(F)(F)C(F)(F)C(F)(F)F [N-Ethyl-N-(2-hydroxyethyl)perfluorooctanesulfonamide]; details: in DMSO
Description: as §1

[6] = compound: FC(F)(F)C(F)(C(F)(F)F)C(F)(F)C(F)(F)CC1CO1 [3-(Perfluoro-3-methylbutyl)-1,2-propenoxide]; details: in DMSO
Description: as §1

[7] = compound: FC(F)(F)C(F)(F)C(F)(F)C(F)(F)C(F)(F)CCI [1-Iodo-1H,1H,2H,2H-perfluoroheptane]; details: in DMSO
Description: as §1

## BE3C:MMP-1
[1]
  level (log10): 0.016 ± 0.033
[2]; 6700 nM
  level (log10): -0.0245 ± 0.036
[2]; 20000 nM
  level (log10): -0.0195 ± 0.028
[3]; 6700 nM
  level (log10): -0.0305 ± 0.042
[3]; 20000 nM
  level (log10): -0.0235 ± 0.026
[3]; 60000 nM
  level (log10): -0.001 ± 0.04
[4]; 6700 nM
  level (log10): -0.042 ± 0.048
[4]; 20000 nM
  level (log10): -0.0015 ± 0.057
[4]; 60000 nM
  level (log10): 0.0145 ± 0.037
Perfluorobutanoic acid; 6700 nM
  level (log10): -0.004 ± 0.034
Perfluorobutanoic acid; 20000 nM
  level (log10): -0.0075 ± 0.013
Perfluorobutanoic acid; 60000 nM
  level (log10): 0.021 ± 0.014
[5]; 6700 nM
  level (log10): 0.255 ± 0.03
[5]; 20000 nM
  level (log10): 0.328 ± 0.0071
[6]; 6700 nM
  level (log10): 0.0085 ± 0.076
[6]; 20000 nM
  level (log10): 0.0445 ± 0.1
[7]; 6700 nM
  level (log10): 0.004 ± 0.023
[7]; 20000 nM
  level (log10): 0.074 ± 0.03
[7]; 60000 nM
  level (log10): 0.162 ± 0.0078

## BE3C:MMP-9
[1]
  level (log10): 0.0055 ± 0.026
[2]; 6700 nM
  level (log10): 0.0055 ± 0.0078
[2]; 20000 nM
  level (log10): -0.0215 ± 0.022
[3]; 6700 nM
  level (log10): 0.001 ± 0.023
[3]; 20000 nM
  level (log10): -0.0105 ± 0.032
[3]; 60000 nM
  level (log10): 0.005 ± 0.048
[4]; 6700 nM
  level (log10): -0.0395 ± 0.005
[4]; 20000 nM
  level (log10): -0.026 ± 0.0042
[4]; 60000 nM
  level (log10): -0.019 ± 0.047
Perfluorobutanoic acid; 6700 nM
  level (log10): -0.0075 ± 0.021
Perfluorobutanoic acid; 20000 nM
  level (log10): -0.007 ± 0.035
Perfluorobutanoic acid; 60000 nM
  level (log10): -0.0145 ± 0.015
[5]; 6700 nM
  level (log10): 0.018 ± 0.0071
[5]; 20000 nM
  level (log10): -0.0535 ± 0.04
[6]; 6700 nM
  level (log10): -0.005 ± 0.0071
[6]; 20000 nM
  level (log10): -0.018 ± 0.011
[7]; 6700 nM
  level (log10): -0.0125 ± 0.0092
[7]; 20000 nM
  level (log10): 0.026 ± 0.0099
[7]; 60000 nM
  level (log10): 0.0525 ± 0.021

## BE3C:PAI-I
[1]
  level (log10): -0.0545 ± 0.049
[2]; 6700 nM
  level (log10): -0.0205 ± 0.03
[2]; 20000 nM
  level (log10): -0.025 ± 0.048
[3]; 6700 nM
  level (log10): -0.0075 ± 0.028
[3]; 20000 nM
  level (log10): -0.008 ± 0.014
[3]; 60000 nM
  level (log10): -0.002 ± 0.04
[4]; 6700 nM
  level (log10): -0.037 ± 0.055
[4]; 20000 nM
  level (log10): 0.0125 ± 0.053
[4]; 60000 nM
  level (log10): 0.0055 ± 0.018
Perfluorobutanoic acid; 6700 nM
  level (log10): -0.011 ± 0.011
Perfluorobutanoic acid; 20000 nM
  level (log10): -0.025 ± 0.023
Perfluorobutanoic acid; 60000 nM
  level (log10): -0.0085 ± 0.0035
[5]; 6700 nM
  level (log10): -0.066 ± 0.0071
[5]; 20000 nM
  level (log10): -0.092 ± 0.017
[6]; 6700 nM
  level (log10): -0.0175 ± 0.0035
[6]; 20000 nM
  level (log10): -0.0075 ± 0.013
[7]; 6700 nM
  level (log10): -0.025 ± 0.061
[7]; 20000 nM
  level (log10): -0.0105 ± 0.056
[7]; 60000 nM
  level (log10): 0.008 ± 0.1

## BE3C:SRB
[1]
  level (log10): -0.0065 ± 0.0092
[2]; 6700 nM
  level (log10): -0.0025 ± 0.0021
[2]; 20000 nM
  level (log10): -0.0045 ± 0.0021
[3]; 6700 nM
  level (log10): 0
[3]; 20000 nM
  level (log10): 0.0035 ± 0.00071
[3]; 60000 nM
  level (log10): 0.013 ± 0.024
[4]; 6700 nM
  level (log10): 0.0005 ± 0.0064
[4]; 20000 nM
  level (log10): -0.0025 ± 0.00071
[4]; 60000 nM
  level (log10): 0.0015 ± 0.0064
Perfluorobutanoic acid; 6700 nM
  level (log10): -0.009 ± 0.011
Perfluorobutanoic acid; 20000 nM
  level (log10): 0 ± 0.0042
Perfluorobutanoic acid; 60000 nM
  level (log10): -0.0005 ± 0.011
[5]; 6700 nM
  level (log10): -0.0175 ± 0.011
[5]; 20000 nM
  level (log10): -0.04 ± 0.0071
[6]; 6700 nM
  level (log10): -0.0005 ± 0.00071
[6]; 20000 nM
  level (log10): 0.0015 ± 0.0021
[7]; 6700 nM
  level (log10): -0.003 ± 0.0057
[7]; 20000 nM
  level (log10): -0.0105 ± 0.0021
[7]; 60000 nM
  level (log10): -0.0085 ± 0.012

## BE3C:tPA
[1]
  level (log10): -0.014 ± 0.025
[2]; 6700 nM
  level (log10): -0.0135 ± 0.018
[2]; 20000 nM
  level (log10): -0.004 ± 0.0057
[3]; 6700 nM
  level (log10): -0.035 ± 0.016
[3]; 20000 nM
  level (log10): -0.001 ± 0.034
[3]; 60000 nM
  level (log10): -0.0145 ± 0.028
[4]; 6700 nM
  level (log10): -0.025 ± 0.0099
[4]; 20000 nM
  level (log10): -0.0485 ± 0.0021
[4]; 60000 nM
  level (log10): -0.03 ± 0.033
Perfluorobutanoic acid; 6700 nM
  level (log10): -0.025 ± 0.025
Perfluorobutanoic acid; 20000 nM
  level (log10): -0.025 ± 0.04
Perfluorobutanoic acid; 60000 nM
  level (log10): -0.037 ± 0.0099
[5]; 6700 nM
  level (log10): 0.142 ± 0.0099
[5]; 20000 nM
  level (log10): -0.036 ± 0.058
[6]; 6700 nM
  level (log10): -0.0215 ± 0.04
[6]; 20000 nM
  level (log10): -0.037 ± 0.033
[7]; 6700 nM
  level (log10): -0.0055 ± 0.074
[7]; 20000 nM
  level (log10): 0.0465 ± 0.073
[7]; 60000 nM
  level (log10): 0.0495 ± 0.047

## BE3C:uPA
[1]
  level (log10): 0.0005 ± 0.016
[2]; 6700 nM
  level (log10): -0.004
[2]; 20000 nM
  level (log10): -0.012 ± 0.0028
[3]; 6700 nM
  level (log10): -0.011 ± 0.011
[3]; 20000 nM
  level (log10): -0.0135 ± 0.0021
[3]; 60000 nM
  level (log10): -0.002 ± 0.014
[4]; 6700 nM
  level (log10): -0.0495 ± 0.079
[4]; 20000 nM
  level (log10): -0.028 ± 0.069
[4]; 60000 nM
  level (log10): -0.011 ± 0.041
Perfluorobutanoic acid; 6700 nM
  level (log10): -0.0065 ± 0.026
Perfluorobutanoic acid; 20000 nM
  level (log10): -0.007 ± 0.011
Perfluorobutanoic acid; 60000 nM
  level (log10): -0.015 ± 0.014
[5]; 6700 nM
  level (log10): -0.0025 ± 0.022
[5]; 20000 nM
  level (log10): -0.018 ± 0.031
[6]; 6700 nM
  level (log10): 0.0005 ± 0.018
[6]; 20000 nM
  level (log10): 0.004 ± 0.021
[7]; 6700 nM
  level (log10): 0.013 ± 0.011
[7]; 20000 nM
  level (log10): -0.0005 ± 0.019
[7]; 60000 nM
  level (log10): -0.0025 ± 0.033

## CASM3C:CCL2/MCP-1
[1]
  level (log10): -0.0115 ± 0.012
[2]; 6700 nM
  level (log10): -0.0205 ± 0.00071
[2]; 20000 nM
  level (log10): -0.019 ± 0.0028
[3]; 6700 nM
  level (log10): -0.0145 ± 0.044
[3]; 20000 nM
  level (log10): -0.0245 ± 0.0092
[3]; 60000 nM
  level (log10): 0.009 ± 0.04
[4]; 6700 nM
  level (log10): -0.0445 ± 0.09
[4]; 20000 nM
  level (log10): -0.0325 ± 0.067
[4]; 60000 nM
  level (log10): -0.039 ± 0.095
Perfluorobutanoic acid; 6700 nM
  level (log10): -0.0125 ± 0.0078
Perfluorobutanoic acid; 20000 nM
  level (log10): -0.025 ± 0.027
Perfluorobutanoic acid; 60000 nM
  level (log10): -0.001 ± 0.041
[5]; 6700 nM
  level (log10): 0.003 ± 0.017
[5]; 20000 nM
  level (log10): -0.017 ± 0.0057
[6]; 6700 nM
  level (log10): -0.003 ± 0.0071
[6]; 20000 nM
  level (log10): 0.004 ± 0.031
[7]; 6700 nM
  level (log10): -0.0045 ± 0.011
[7]; 20000 nM
  level (log10): -0.006 ± 0.028
[7]; 60000 nM
  level (log10): -0.001 ± 0.037
